Format in all cases: physicochemical
Data set [1] in a line: Simulated Y-site compatibility: subvisible particulates by light obscuration (HIAC, USP 788). The conditions noted are these: for Subvisible Particulates (HIAC) ≧10 μm / Subvisible Particulates (HIAC) ≧25 μm: each before mixing, 0 hours; for HIAC ≧10 μm / HIAC ≧25 μm: each solution before mixing, 0 Hours. The text has this: Sub-visible particulate formation may be measured by light obscuration (HIAC) as per United States Pharmacopeia USP Chapter 788 Particulate Matter in Injections.
This time period has become standard when performing these “simulated Y-site” studies, although the actual residence time for the two solutions in the administration set may not exceed eight minutes prior to entering the venous system.
The acceptance criteria of “no incompatibility indicating change” over the four hour evaluation period is being applied to the Appearance and Description assay as well as the HIAC subvisible particulate assay. Thus, for instance, formation of visible particulates or increase of subvisible particulates would indicate an incompatibility and would result in a “Y-site incompatible” classification for that diluent or drug. In addition to the Appearance and Description and HIAC testing, the pH of the solutions are monitored “for information only.” Before mixing of the two test solutions together; Appearance and Description, HIAC subvisible particulate testing, and pH are determined on each as controls.
(§1) Testing of Controls • 1. […] The remaining volumes of the two test articles are used immediately.
(§2) Preparation and Testing of Combined Solutions • 1. […] Approximately 30 ml of the combined solution is immediately removed for 0 hour Appearance and Description, subvisible particulates by HIAC and pH testing. The beaker with the remaining solution is then recovered with Parafilm and the headspace flushed with nitrogen. • 2. The sampling and testing of 30 ml aliquots is repeated after one and four hours.
The following tests are performed immediately after sampling: • 1. Appearance and Description for color, visible particulates, and turbidity measured using a Black and White background light box with a fluorescent lamp capable of producing intensity of illumination between 2000 and 3750 lux. • 2. Sub visible particulates are measured by light obscuration (HIAC) as per United States Pharmacopeia USP Chapter 788 Particulate Matter in Injections.
(§3) All drug products are prepared per package insert directions; some drugs having wide therapeutic ranges are tested at multiple concentrations, and some drugs with different formulations are tested. A simulation of the mixing which would occur at an intravenous administration set Y-site is used, and the period for evaluation of compatibility exaggerated the generally short time that the two agents would be together prior to venous circulation. Test solutions before and after mixing are measured by visual observation, by light obscuration for subvisible particulates (HIAC), and by potentiometry over a four hour period.

The nature of data set [2]: Simulated Y-site compatibility: pH by potentiometric meter. The protocol:
(§4) The acceptance criteria of “no incompatibility indicating change” over the four hour evaluation period is being applied to the Appearance and Description assay as well as the HIAC subvisible particulate assay. […] In addition to the Appearance and Description and HIAC testing, the pH of the solutions are monitored “for information only.” Before mixing of the two test solutions together; Appearance and Description, HIAC subvisible particulate testing, and pH are determined on each as controls.
as §1, §2
pH is measured using a potentiometric meter capable of measuring pH values reproducibly within 0.02 pH units and having electrodes suitable for pH meter use.
as §3

Data set [3] in a line: Compatibility classification of intravenous diluents and drugs under simulated Y-site conditions with Tigecycline for Injection. Conditions: Dobutamine final concentration 1.0 mg/ml, mixed with Tigecycline for Injection, four hour period. The protocol:
as §3

A short description of data set [4]: Compatibility of tigecycline with heparin (simulated Y-site study, overall finding). Conditions: common point of administration, e.g. Y-site, without saline flush. The protocol:
A study is performed to determine the compatibility of tigecycline solutions with heparin. Heparin is prepared for this study as per the directions given in the package insert. The compatibility testing is performed using a “simulated Y-site” technique developed and published by Trissel et. al. “Compatibility of Fenoldopam Mesylate with other Drugs during Simulated Y-site Administration, Am. J. Health-System Pharmacy, Vol. 60, 80-85, 2003; Trissel, et. al. “Physical Compatibility of Antithymocyte Globulin (Rabbit) with Heparin Sodium and Hydrocortisone Sodium, Vol. 60, 1650-1652, 2003; Trissel et. al. “Compatibility Screening of Bivalirudin during Simulated Y-site Administration with Other Drugs, and Trissel et. al. “Compatibility of piperacillin sodium plus tazobactum with selected drugs during simulated Y-site injection, Am. J. Hosp. Pharm., Vol. 51, 672-678, 1994. […]
as §4

[5] abbreviates: Table 6: Tigecycline and Chlorpromazine solutions.
Setting [6] is: Table 4: Tigecycline and Dobutamine solutions.
Where [7] appears, read: Table 4: Tigecycline and Dobutamine solutions, each before mixing, 0 hours.
Setting [8] is: Table 5: Tigecycline and Dopamine solutions.
The mark [9] stands for this setting: Table 5: Tigecycline and Dopamine solutions, each before mixing, 0 hours.
The mark [10] stands for this setting: Table 1: Tigecycline 1 mg/mL in NS, Heparin 10 Units/ml in NS.
Setting [11] is: Table 2: Tigecycline 1 mg/mL in NS, Heparin 100 Units/ml in NS.

As for `CN(C)CCCN1c2ccccc2Sc2ccc(Cl)cc21` [Chlorpromazine, reference compound], in data set [1] (setting [5]), the “Subvisible Particulates (HIAC) ≧10 μm” value is recorded as 21.9 particles/ml and the “Subvisible Particulates (HIAC) ≧25 μm” value is given as 2.9 particles/ml. The molecule further returned a pH in data set [2] (Table 6: Tigecycline and Chlorpromazine solutions, each before mixing, 0 hours) of 4.61.

In the case of `CC(CCc1ccc(O)cc1)NCCc1ccc(O)c(O)c1` (stereo not drawn) [Dobutamine, reference compound], in data set [3], the “Compatibility Classification” value is “Compatible”. For the same molecule, in data set [1] (setting [6]), the “Subvisible Particulates (HIAC) ≧10 μm” value is 5.9 particles/ml and the “Subvisible Particulates (HIAC) ≧25 μm” value is given as 0.6 particles/ml. The molecule also returned a pH in data set [2] (setting [7]) of 4.18.

Take `NCCc1ccc(O)c(O)c1` [Dopamine, reference compound]: in data set [1] (setting [8]), the “Subvisible Particulates (HIAC) ≧10 μm” value is 3.1 particles/ml and the “Subvisible Particulates (HIAC) ≧25 μm” value is listed as 0.1 particles/ml. For the same molecule, the pH in data set [2] (setting [9]) is 3.59.

Turning to `CN(C)c1cc(NC(=O)CNC(C)(C)C)c(O)c2c1C[C@H]1C[C@H]3[C@H](N(C)C)C(O)=C(C(N)=O)C(=O)[C@@]3(O)C(O)=C1C2=O` [Tigecycline, (4S,4aS,5aR,12aS)-9-[2-(tert-butylamino)acetamido]-4,7-bis(dimethylamino)-1,4,4a,5,5a,6,11,12a-octahydro-3,10,12,12a-tetrahydroxy-1,11-dioxo-2-naphthacenecarboxamide], the “HIAC ≧10 μm” value in data set [1] (setting [10]) is on record as 39.3 particles/mL; in data set [1] (setting [11]) it was 69.1 particles/mL. The “HIAC ≧25 μm” value is given as 1.4 particles/mL in data set [1] (setting [10]) and 6.2 particles/mL in data set [1] (setting [11]). The “Subvisible Particulates (HIAC) ≧10 μm” value was 35.8 particles/ml in data set [1] (setting [6]), 82.3 particles/ml in data set [1] (setting [8]) and 27.4 particles/ml in data set [1] (setting [5]). The “Subvisible Particulates (HIAC) ≧25 μm” value in data set [1] (setting [6]) is 0.9 particles/ml; in data set [1] (setting [8]), 2.2 particles/ml; in data set [1] (setting [5]), 1.3 particles/ml. Besides, the pH in data set [2] (Table 2: Tigecycline 1 mg/mL in NS, Heparin 100 Units/ml in NS, each solution before mixing, 0 Hours) is on record as 7.82; in data set [2] (setting [7]), 7.81; in data set [2] (setting [9]), 7.84. Further, in data set [4], the “compatibility with the administration of heparin” value is listed as “compatible”.

The values are drawn from patent US20060251705A1 (Wyeth, priority 2005, published 2006).
